Test results: patent US20250049741A1, “COMPOSITION FOR PREVENTING OR TREATING ALZHEIMER'S DISEASE COMPRISING PHOSPHOLIPASE C ACTIVATOR AS AN ACTIVE INGREDIENT” (Korea University Research and Business Foundation, priority 2021, published 2025)

System: 5XFAD mice
Experiment: Contextual fear conditioning (CFC), freezing response
Type: in vivo
Conditions: m-3M3FBS-injected 5XFAD mice
From the text: To test the acute effect of AβO on hippocampal S-eCB mobilization, hippocampal slices from Sprague-Dawley rats (SD, 2 to 3 weeks old, […] Biolink, Co., Ltd., Korea) were used. Male and female rats were used in all in vitro experiments. To test the chronic effect of AβO on hippocampus-dependent memory impairments caused by amyloidosis, the 5XFAD mouse model (6 to 7 months old, #34840-JAX, Jackson Laboratory, USA), which is a mouse model of Alzheimer's disease that mimics AβO depositions, was used. C57BL/6 mice (6 to 7 months old, KOATECH, Korea) were used as wild type (WT) control mice for 5XFAD mice. Male 5XFAD and C57BL/6 mice were used for all in vivo behavioral experiments. […] A ceiling-mounted video camera recorded the behavior activity, and fed the corresponding video into a customized computer software (MATLAB, USA). […] Behavioral mobility data collected during the contextual conditioning experiments were automatically detected using the gray scaling method of EthoVision XT (Noldus, USA). […] Since a body-freezing response (freezing) is considered a conditioned response to CFC during the memory session, the body-freezing response was detected when the threshold was below the 2.0% threshold of mobility. That is, this means that there could be no more than a 2.0% change in the pixels of a detected mouse between the current sample and the previous sample. […]

SMILES: Cc1cc(C)c(S(=O)(=O)Nc2cccc(C(F)(F)F)c2)c(C)c1 [m-3M3FBS]
- freezing responses during memory recall compared to DMSO-injected 5XFAD mice: remarkably increased
